One test concerns angiotensin. Briefly: In-vitro angiotensin inhibitory activity. In kind it is biochemical. Particulars: for angiotensin inhibitory activity: general pharmacological screening, result in words.
The test system of test [1] is guinea pig ileal longitudinal smooth muscle. Briefly: Calcium channel antagonist testing: inhibition of carbachol-induced, muscarinic receptor-mediated Ca2+-dependent contraction of smooth muscle. Particulars: for relative potency compared with Nifedipine: calcium antagonist in smooth muscle, Nifedipine = 1. The format is cell-based. An excerpt:
The compounds of this invention of formulae I and II are suitably prepared, applying modified Hantzsch pyridine synthesis, by reacting the appropriately substituted heterocyclic alkyl acetoacetate or substituted heterocyclic mercapto alkyl acetoacetate with a substituted benzaldehyde derivative and methyl-β-aminocrotonate in isopropanol. The compounds of formula III are suitably prepared by reacting diketene or an alkyldiketene with an appropriately substituted heterocyclic ω-alkanol or substituted heterocyclic mercapto ω-alkanol in benzene. The related sulfoxy and sulfonyl derivatives of formula VI may be prepared by oxidizing the relative mercapto derivative with m-chloroperbenzoic acid in CH₂Cl₂ followed, if required, by further oxidation with potassium permanganate in acetic acid. All the products in this invention are characterized by their respective nmr, ir spectra and their elemental analysis. The relative purity has been determined by HPLC. Calcium antagonistic activity of the compounds was determined at the concentration required to produce 50% inhibition of the muscarinic receptor-mediated Ca²⁺-dependent contraction of guinea pig ileal longitudinal smooth muscle assay.
Calcium channel antagonist activity was determined as the concentration required to produce 50% inhibition of the muscarinic receptor-mediated Ca⁺²-dependent contraction of guinea pig ileal longitudinal smooth muscle assay (C. Triggle, V. Swamy and D. Triggle, Can. J. Physiol. Pharmacol., 1979, 57, 804). Male albino guinea pigs (body weight 300 - 450g) were sacrificed by decapitation. The intestine was removed above the ileocaecal junction. Longitudinal smooth muscle segments of 2cm length were mounted under a resting tension of 300 - 400 mg. The segments were maintained at 37°C in a 10mL jacketed organ bath containing oxygenated (100% O₂) physiological saline solution of the following composition (mM): NaCl: 137; CaCl₂: 2.6; KCl: 5.9; MgCl₂: 1.2; glucose: 11.9; buffered by Hepes-NaOH to pH 7.4. The muscles were equilibrated for 1h with a solution change every 15 min. Two successive control contractions were elicited at 15 min. intervals with 5x10⁻⁷M carbachol. The isometric contractions were recorded with a force displacement transducer (FT 03C) on a GRASS* physiograph. The means of the […] contractile responses was taken as the 100% value for the tonic (slow) component of the response. The muscle was washed with Hepes saline solution and was allowed to re-equilibrate. The calcium antagonist (test compound) was added ten min before the dose-response for carbachol was determined. The drug-induced inhibition of contraction was expressed as percent of control. The ID₅₀ values were graphically determined from the concentration-response curves, in triplicate.

Test [2] in a line: General pharmacological screening: anti-ulcer stressic activity. Particulars: result in words.
For another test, the system named is LTD₄. The experiment in a line: General pharmacological screening: LTD4 antagonistic activity. Particulars: result in words.
The subject of test [3] is heart muscle. Briefly: Ionotropic effect and heart rate on heart muscle. The format is cell-based. Particulars: for heart contractile force / heart rate: at the concentrations which normally exhibit the Ca-blocking effect in smooth muscles; for positive ionotropic effect on the heart muscle: same concentration as smooth muscle relaxant (IC50 concentration; 3.25 x 10⁻⁹M for Compound 11).

Test [4] is described as follows: General pharmacological screening: anti-inflammatory activity. Particulars: result in words.
Test [5] deals with heart muscle. Particulars: in the concentration of its smooth muscle calcium channel blocking effectiveness; cited from earlier work.
The subject of the next test is SHR Rat. Briefly: Blood pressure and heart rate in SHR Rat. The format is in vivo. Particulars: 0.2mg/Kg.
[6] abbreviates: Cavia porcellus, exponent (x 10⁻⁹), carbachol 5x10⁻⁷M, tonic component, triplicate, read-out: calcium channel antagonist act., inhib. act. on contractile Response to CD ID₅₀.
[7] abbreviates: Cavia porcellus, read-out: IC₅₀ as a calcium antagonist in smooth muscle.

Like-named read-outs stand apart in the source and are kept apart here.

As for `COC(=O)C1=C(C)NC(C)=C(C(=O)OCCCCCCn2nc(C)cc2C)C1c1cccc([N+](=O)[O-])c1` (centres unmarked) [Compound 5, 3-[6-(3,5-dimethylpyrazol-1-yl)hexyloxycarbonyl]-5-methoxycarbonyl-2,6-dimethyl-4-(3-nitrophenyl)-1,4-dihydropyridine], the “Percent Inhibition” value in the test with angiotensin (Concentration 0.01 µg/ml) stood at 95%; in the test with angiotensin (concentration of 0.001 µg) it was 58%. The IC50 in test [1] (setting [6]) is 6.24 nM.

As for `COC(=O)C1=C(C)NC(C)=C(C(=O)OCCCCCCCc2cc(C)no2)C1c1cccc(C(F)(F)F)c1` (centres unmarked) [Compound 3, 3-[7-(3-mehylisoxazol-5-yl)heptyloxycarbonyl]-5-methoxycarbonyl-2,6-dimethyl-4-(3-trifluoromethylphenyl)-1,4-dihydropyridine], the IC50 in test [1] (exponent (x 10⁻⁹), carbachol 5x10⁻⁷M, tonic component, triplicate, read-out: calcium channel antagonist act., inhib. act. on contractile Response to CD ID₅₀) was determined as 5.13 nM.

Take `COC(=O)C1=C(C)NC(C)=C(C(=O)OCCCCCCCc2nc(C)cs2)C1c1cccc(Cl)c1Cl` (centres unmarked) [Compound 17, 3-[7-(4-methylthiazol-2-yl)heptyloxycarbonyl]-5-methoxycarbonyl-2,6-dimethyl-4-(2,3-dichlorophenyl)-1,4-dihydropyridine]: the IC50 in test [1] (Cavia porcellus, exponent printed in neighbouring spread cell (x 10⁻⁸), carbachol 5x10⁻⁷M, tonic component, triplicate, read-out: calcium channel antagonist act., inhib. act. on contractile Response to CD ID₅₀) worked out at 48.1 nM.

As to `COC(=O)C1=C(C)NC(C)=C(C(=O)OCCCCCCSc2nc(C)cs2)C1c1cccc([N+](=O)[O-])c1` (centres unmarked) [Compound 18, 3-[6-(4-methylthiazol-2-yl)thiohexyloxycarbonyl]-5-methoxycarbonyl-2,6-dimethyl-4-(3-nitrophenyl)-1,4-dihydropyridine], in test [1] (setting [6]), the IC50 was determined as 5.48 nM.

As for `COC(=O)C1=C(C)NC(C)=C(C(=O)OCCCCCCCc2nc(C)cs2)C1c1cccc(Cl)c1` (centres unmarked), the anti-ulcer stressic activity result in test [2] is “very strong”. In addition, the angiotensin inhibitory activity entry with angiotensin is listed as “very strong”. The LTD₄ antagonistic activity result in the test with LTD₄ is given as “very strong”.

Turning to `COC(=O)C1=C(C)NC(C)=C(C(=O)OCCCCCCCc2nc(C)cs2)C1c1cccc([N+](=O)[O-])c1` (centres unmarked), in the test on heart muscle [3], the heart contractile force entry is “increase the heart contractile force” and the heart rate result is “without changing the heart rate”. The IC50 in test [1] (setting [7]) is 3.25 ± 0.33 nM. Further, in test [1], the “relative potency compared with Nifedipine” value stood at 4.3.

As to `COC(=O)C1=C(C)NC(C)=C(C(=O)OCCCCCCCc2cc(C)no2)C1c1cccc([N+](=O)[O-])c1` (centres unmarked), in test [2], the anti-ulcer stressic activity result is recorded as “very strong”. Also, in the test with angiotensin, the angiotensin inhibitory activity entry is given as “very strong”. In addition, the LTD₄ antagonistic activity result with LTD₄ is on record as “very strong”.

`COC(=O)C1=C(C)NC(C)=C(C(=O)OCCCCCCCc2nc(C)cs2)C1c1cccc(C(F)(F)F)c1` (centres unmarked) [Compound 13, 3-[7-(4-methylthiazol-2-yl)heptyloxycarbonyl]-5-methoxycarbonyl-2,6-dimethyl-4-(3-trifluoromethylphenyl)-1,4-dihydropyridine]: the “Percent Inhibition” value in the test on angiotensin (Concentration 0.1 µg/ml) is on record as 80%.

On to `COC(=O)C1=C(C)NC(C)=C(C(=O)OCCCCCCCc2nc(C)cs2)C1c1cccc(C(F)(F)F)c1` (centres unmarked), for which the anti-inflammatory activity entry in test [4] is “very strong”.

Consider `COC(=O)C1=C(C)NC(C)=C(C(=O)OCCCCCCS(=O)(=O)c2nc(C)cs2)C1c1cccc([N+](=O)[O-])c1` (centres unmarked) [Compound 19, 3-[6-(4-methylthiazol-2-yl)sulfonylhexyloxycarbonyl]-5-methoxycarbonyl-2,6-dimethyl-4-(3-nitrophenyl)-1,4-dihydropyridine], for which the “positive ionotropic effect on the heart muscle” value (from here on “positive ionotropic effect”) with heart muscle [3] came to 25%. In test [1] (setting [6]), the IC50 came out at 5.81 nM.

`COC(=O)C1=C(C)NC(C)=C(C(=O)OCCCCCCS(=O)(=O)c2nc(C)cs2)C1c1cccc([N+](=O)[O-])c1` (centres unmarked) [listing 1 of 2 here]: in the test with heart muscle [3], the heart contractile force entry was “increase the heart contractile force” and the heart rate result is reported as “without changing the heart rate”.

As to `COC(=O)C1=C(C)NC(C)=C(C(=O)OCCCCCCn2nc(C)cc2C)C1c1cccc([N+](=O)[O-])c1` (centres unmarked), the anti-inflammatory activity entry in test [4] is “very strong”.

Regarding `COC(=O)C1=C(C)NC(C)=C(C(=O)OCCCCCCS(=O)(=O)c2nc(C)cs2)C1c1cccc([N+](=O)[O-])c1` (centres unmarked) [listing 2 of 2 here], the IC50 in test [1] (setting [7]) came to 5.57 nM.

With `COC(=O)C1=C(C)NC(C)=C(C(=O)OCCCCCCS(=O)(=O)c2nc(C)cs2)C1c1cccc([N+](=O)[O-])c1` (centres unmarked) [3-[6-(4-methylthiazol-2-yl)sulfonylhexyloxycarbonyl]-5-metho], in the test with heart muscle [3], the “positive ionotropic effect” value is reported as “about 22%”. Moreover, in test [1], the “relative potency compared with Nifedipine” value was 2.5.

Consider `COC(=O)C1=C(C)NC(C)=C(C(=O)OCCCCCCCc2cc(C)no2)C1c1cccc([N+](=O)[O-])c1` (centres unmarked) [Compound 1, 3-[7-(3-methylisoxazol-5-yl)heptyloxycarbonyl]-5-methoxycarbonyl-2,6-dimethyl-4-(3-nitrophenyl)-1,4-dihydropyridine], for which the “Percent Inhibition” value stood at 93% in the test on angiotensin (Concentration 0.01 µg/ml) and 60% with angiotensin (concentration of 0.0025 µg). Further, the IC50 in test [1] (setting [6]) stood at 3.84 nM.

As to `COC(=O)C1=C(C)NC(C)=C(C(=O)OCCCCCCCc2nc(C)cs2)C1c1cccc(Cl)c1` (centres unmarked) [Compound 15, 3-[7-(4-methylthiazol-2-yl)heptyloxycarbonyl]-5-methoxycarbonyl-2,6-dimethyl-4-(3-chlorophenyl)-1,4-dihydropyridine], the “Percent Inhibition” value in the test on angiotensin (Concentration 0.1 µg/ml) is given as 64%. Also, the IC50 in test [1] (setting [6]) is 6.25 nM.

As for `CCOC(=O)C1=C(C)NC(C)=C(C(=O)OC)C1c1cccc(Cl)c1Cl` (centres unmarked) [Felodipine, 3-ethoxycarbonyl-5-methoxycarbonyl-4-(2,3-dichlorophenyl)-2,6-dimethyl-1,4-dihydropyridine], the “effect on the heart” value in the test with heart muscle [5] is “no effect on the heart”.

`C[C@H](CS)C(=O)N1CCC[C@H]1C(=O)O` [Captopril, reference compound]: in the test on angiotensin (Concentration 0.05 µg/ml), the “Percent Inhibition” value is recorded as 69%.

In the case of `COC(=O)C1=C(C)NC(C)=C(C(=O)OCCCCCCCc2nc(C)cs2)C1c1cccc([N+](=O)[O-])c1` (centres unmarked) [Compound 11, 3-[7-(4-methylthiazol-2-yl)heptyloxycarbonyl]-5-methoxycarbonyl-2,6-dimethyl-4-(3-nitrophenyl)-1,4-dihydropyridine], in the test on SHR Rat, the “drop in blood pressure” value was 19%, the heart rate entry is reported as “without changing the heart rate” and the “period of drop in blood pressure” value stood at 9 h. The “positive ionotropic effect” value in the test with heart muscle [3] was “about 12%”. In test [1] (setting [6]), the IC50 was found to be 3.25 nM.

The record behind these values is patent EP0379351A1, “1,4-Dihydropyridine derivatives” (SYNPHAR LABORATORIES INC., priority 1989, dated 1990).
